Four compounds from US7745578B2, “Fugetactic proteins, compositions and methods of use” (The General Hospital Corporation, priority 2003, dated 2010) can be followed below.

The subject of one series is EL4 cells. Briefly: Viability of EL4 cells after inhibitor treatment. The series is classed as cell-based. The settings on record: EL4 cells in HSF, Brefeldin A 10 μg/ml for 24 hours. Here is the method:
EL4CM24 was heat inactivated at 42° C. for 1 hour prior to being used in the transmigration assays described above. […] EL4CM24 was incubated with hydrated proteinase K agarose (Sigma-Aldrich; St. Louis, Mo.) at 1 mg/ml for 1 hour at 37° C. in a 5% CO2 humidified incubator then filtered through a 0.2 μm pore-size filter prior to being used in the transmigration and intraperitoneal assays. Murine T-cells were incubated with pertussis toxin (Sigma-Aldrich; St. Louis, Mo.) at 100 ng/ml for 1 hour at 37° C. in a 5% CO2 humidified incubator, prior to being used in the transmigration assays. EL4CM24 was incubated with radiciol (Sigma-Aldrich; St. Louis, Mo.) for two hours at room temperature at concentrations 0.1 μg/ml and 7.3 μg/ml. The transmigration was then carried out using the EL4CM24 mixture. As a control, transmigration assays were also carried out using gradients of HSF media supplemented with 7.3 μg/ml of radicol or using EL4CM24-radicicol mixtures from which excess radiciol had been removed using 5 kDa size exclusion Centricon Ultrafree filters (Millipore; Billerica, Mass.). EL4 cells in HSF were also exposed to Geldanamycin at 1.2 μM or 200 nM prior to use of the CM in transmigration assays. EL4 cells in HSF were also exposed to Brefeldin A at 10 μg/ml overnight for a full 24 hours prior to use of the EL4CM24 in transmigration assays. […]

Another series deals with murine T-cells. Briefly: Quantitative transmigration assay (ChemoTx), negative gradients of EL4 conditioned media. The class given is cell-based, C57BL/6 mice. The following applies: compared with untreated EL4CM24. The method, then: C57BL/6 mice (4 to 8 weeks old) (Jackson Laboratories; Bar Harbor Me.) were euthanized, and dissection of superficial cervical, axillary, brachial and inguinal lymph nodes was performed under sterile conditions. Dissected lymph nodes were then physically disaggregated and a cell suspension generated. The cell suspension was then enriched for T cells by depletion of non-T cells using MACS Pan T cell isolation kit for mouse leukocytes (Miltenyi Biotec; Auburn, Calif.).
Quantitative transmigration assays were carried out as described previously. In brief, ChemoTx chemotaxis 30 μl well plates with 3 μm pore size filters (Neuro Probe; Gaithersburg, Md.) were used. 20,000 murine T-cells were loaded in the upper chamber of the ChemoTx system and subjected to positive, negative and uniform gradients of EL4CM24 in a standard checkerboard analysis of cell migration. The peak concentrations used in each gradient were 1 in 2, 1 in 10, and 1 in 100 dilutions of EL4CM24 with 10.5 media; Isocove's supplemented with 0.5% fetal calf serum, 50 units/ml Penicillin, 50 μg/ml Streptomycin and 292 μg/ml L-Glutamine (Mediatech; Herndon, Va.). […] The chemotactic index was calculated as the quotient of the average number of cells migrating in response to EL4CM24 and the average number of cells migrating in response to media alone. […]

For series [1], the system named is T-cell infiltration into the peritoneal cavity. Briefly: Intraperitoneal injection of conditioned media and analysis of lymphocyte infiltration. Details: species or system BALB/c-DO11 mice. The following applies: after immunoprecipitation of HSP90α from EL-4 CM with a monoclonal antibody; immune challenge in vivo. Here is the method: BALB/c-DO11 mice (kindly provided by Dr. Iacomini, Massachusetts General Hospital) were primed by subcutaneous injection with 100 μl of ovalbumin (ICN Biomedicals; Costa Mesa, Calif.) dissolved in Freund's complete adjuvant (Pierce Biotechnology; Rockford, Ill.) at a concentration 1 mg/ml. Three days later, mice were injected intraperitoneally with 250 μl of ovalbumin dissolved in sterile water at concentration a 0.4 mg/ml. 24 hours later, experimental mice were injected intraperitoneally with 250 μl of EL4CM24, while control mice were injected intraperitoneally with 250 μl of HSF media or protease treated EL4CM24. 24 hours later, cells were extracted from the intraperitoneal space by lavage with 5 ml of cold phosphate buffered saline (Mediatech; Herndon, Va.) and aspiration with a 10 ml syringe and 21-gauge needle. Peritoneal lavage cells were counted on a hemocytometer and then immuno-stained for anti-CD3, CD4, CD8 and TCR-kj-OVA lymphocyte expression (BD BioSciences; San Jose, Calif.) and anti-CD4 (Caltag Laboratories; Burlingame, Calif.) with antibodies labelled with Percp and PE (phytoerythrin) known fluorophor labels. T-cells expressing CD3+, CD3+ CD4+, CD3+ CD8+, CD3+ TCR-kj-OVA were then determined by FACS analysis.

As for `C[C@H]1CCC/C=C/[C@@H]2C[C@H](O)C[C@H]2[C@H](O)/C=C/C(=O)O1` [Brefeldin A], the viability result with EL4 cells is “Greater than 65%”.

`C[C@@H]1C[C@H]2O[C@@H]2/C=C\C=C\C(=O)Cc2c(Cl)c(O)cc(O)c2C(=O)O1` [radicicol]: the “level of migration of lymphocytes” value with murine T-cells is recorded as “not significantly reduced”.

Regarding “HSP90α: heat shock protein in EL-4 conditioned medium, removed by immunoprecipitation with a monoclonal antibody”, in series [1], the “reduction in the fugetactic effect of the CM on T-cells infiltrating the peritoneal cavity” value is recorded as “four-fold reduction”.

Take pertussis toxin: in the series with murine T-cells, the “level of migration of lymphocytes” value is given as “significantly reduced”.
